# Reference: patent publication US20240334934A1, “FUNGICIDE MIXTURE” (priority 2021, published 2024)
# Where two headings read alike, the source gives them in different places.
# Legend:
# [1] = test system: Zymoseptoria tritici K6105; experiment: Efficacy of mixtures of streptimidone and CtmC, liquid culture in PDB, optical density 620 nm; assay type: cell-based
# [2] = test system: Zymoseptoria tritici K6420; experiment: as above; assay type: cell-based; settings: K6420, read-out: % Efficacy
# [3] = test system: Zymoseptoria tritici; experiment: Efficacy of purified CtmC in-vitro, microtiter plate growth inhibition; assay type: cell-based; settings: rate 10 ppm; 72 hrs at 24° C.
# Procedure: CtmC was dissolved in DMSO (Dimethylsulfoxid) to a final concentration of 1000 ppm to create a stock solution. A second dilutions of 1:10 was made in water+0.025% Tween 20. From this second dilution 10 μl are dispensed into a 96-well plate. To each well, 90 μl of medium with fungal spores are added and mixed, resulting in final CtmC concentrations of 10 ppm. All wells containing CtmC also contain DMSO (1%) and Tween 20 (0.0025%).
# Zymoseptoria tritici (Septoria leaf blotch): Conidia of the fungus from cryogenic storage were directly mixed into nutrient broth (PDB potato dextrose broth). After placing a solution of the test compounds into a microtiter plate (96-well format) the nutrient broth containing the fungal spores was added.
# [4] = test system: Puccinia triticina; experiment: Leaf disc assay, wheat leaf segments, preventive; assay type: in vivo; settings: rate 20 ppm, 8 dpi
# Procedure: (§1) A CtmC stock was generated at 1000 ppm in DMSO, then Diluted 1:50 in water+Tween 20 at 0.025% resulting in a 20 ppm solution.
# (§2) Puccinia triticina (also known as recondite, Brown rust, wheat): Wheat leaf segments are placed on agar in multiwell plates (24-well format) and sprayed with test solutions. After drying, the leaf disks are inoculated with a spore suspension of the fungus. After appropriate incubation the activity of a compound is assessed 8 dpi (days after inoculation) as preventive fungicidal activity.
# [5] = test system: Phakopsora pachyrhizi; experiment: Leaf disc assay, soybean leaf disks, preventive; assay type: in vivo; settings: rate 20 ppm, approx. 12 dpi
# Procedure: as §1
# as §2, with “Phakopsora pachyrhizi (Asian Soybean rust): Soybean” for “Puccinia triticina (also known as recondite, Brown rust, wheat): Wheat”, “disks” for “segments”, “approx. 12” for “8”, “activity” for “activity.”
# [6] = test system: Zymoseptoria tritici; experiment: Greenhouse test, wheat, preventative; assay type: in vivo; settings: 1 day preventative, EC50 formulation
# Procedure: (§3) Purified Cyclothiazomycin C (CtmC) was formulated as an EC50 formulation. The formulation was diluted in water at rates of 100 ppm and 50 ppm of CtmC. Plants were treated with 400 L/ha of the diluted product supplemented with an adjuvant to improve sticking and spreading, resulting in a treatment of 40 g/ha and 20 g/ha of CtmC, respectively.
# Zymoseptoria tritici wheat/preventative (Septoria tritici leaf spot on wheat). 2-week old wheat plants cv. Riband are sprayed in a spray chamber with the formulated test compound diluted in water. The test plants are inoculated by spraying a spore suspension on them one day after application. After an incubation period of 1 day at 22° C./21° C. (day/night) and 95% rh, the inoculated test plants are kept at 22° C./21° C. (day/night) and 70% rh in a greenhouse. Efficacy is assessed directly when an appropriate level of disease appears on untreated check plants (16-19 days after application).
# [7] = test system: Puccinia triticina; experiment: Greenhouse test, wheat, preventative; assay type: in vivo; settings: 2 days preventative, EC50 formulation
# Procedure: as §3
# Puccinia triticina (also known as recondata, Brown rust on wheat). 2-week old wheat plants cv. Arina are sprayed in a spray chamber with the formulated test compound diluted in water. […] After an incubation period of 1 day at 20° C. and 95% rh, the inoculated test plants are kept at 20° C./18° C. (day/night) and 60% rh in a greenhouse. The percentage leaf area covered by disease is assessed when an appropriate level of disease appears on untreated check plants (12-14 days after application).
# [8] = test system: Botrytis cinerea; experiment: Greenhouse test, tomato, preventative; assay type: in vivo; settings: 2 days preventative, EC50 formulation
# Procedure: as §3
# Botrytis cinerea tomato/preventative (Botrytis on tomato) 4-week old tomato plants cv. Roter Gnom are treated in a spray chamber with the formulated test compound diluted in water. The test plants are inoculated by spraying them with a spore suspension two days after application. The inoculated test plants are incubated at 20° C. and 95% rh in a greenhouse and the percentage leaf area covered by disease is assessed when an appropriate level of disease appears on untreated check plants (5-6 days after application).
# [9] = test system: Fusarium sporotrichioides K7901; assay type: cell-based; settings: CtmC 10 ppm
# [10] = test system: Pyrenophora tritici-repentis K6186; experiment: Efficacy of purified CtmC alone in-vitro, 96 well plate, OD 620 nm; assay type: cell-based; settings: CtmC 10 ppm, mycelium inoculum
# Procedure: CtmC was dissolved in DMSO (Dimethylsulfoxid) to a final concentration of 1000 ppm to create a stock solution. A second dilutions of 1:10 was made in water+0.025% Tween 20. From this second dilution 10 μl are dispensed into a 96 well plate. […] All wells containing CtmC also contain DMSO (1%) and Tween 20 (0.0025%). In the following table 4 some of the species were tested using several distinct isolates (internal strain number indicated) to understand variability among different isolates of the same species sampled in different locations, producing different mycotoxins (genus Fusarium), or expressing various tolerances to fungicides of the SDHI (Succinate Dehydrogenase Inhibitor), SBI (Sterol Biosynthesis Inhibitors) and/or QoI (quinone outside inhibitors) classes (example: Zymoseptoria tritici). Different isolates had variable inoculum density and number of biological repicas, as indicated.
# [11] = test system: genus Bacillus; settings: statement of WO2015191789, Table 6; cited from earlier work
structure (smiles),measurement,setting,value
"C=C1NC(=O)CNC(=O)[C@H](CCCCN)NC(=O)[C@@]2(C)NC(=O)/C(=C/C)NC(=O)[C@H]3CSC(=N3)[C@@H](CC(N)=O)CC(=O)c3ccc(nc3[C@@H](C)NC(=O)[C@@H]3CCCN3C1=O)-c1nc(cs1)C1=N[C@H](CS1)C(=O)NC(=C)c1nc(cs1)-c1nc(cs1)C1=N[C@@H](CS1)C(=O)N[C@@H](C(=O)O)CS2 [CtmC, cyclothiazomycin C]",Emax at 0.0556 ppm,"[1]; K6105, read-out: % Efficacy, CtmC 0.0556 ppm alone (Streptimidone 0), lower sub-table",0%
same,Emax at 0.0556 ppm,"[1]; K6105, read-out: % Efficacy, CtmC 0.0556 ppm alone (Streptimidone 0), upper sub-table",19%
same,Emax at 0.1667 ppm,"[1]; K6105, read-out: % Efficacy, CtmC 0.1667 ppm alone (Streptimidone 0), lower sub-table",23%
same,Emax at 0.1667 ppm,"[1]; K6105, read-out: % Efficacy, CtmC 0.1667 ppm alone (Streptimidone 0), upper sub-table",61%
same,Emax at 0.5 ppm,"[1]; K6105, read-out: % Efficacy, CtmC 0.5000 ppm alone (Streptimidone 0), lower sub-table",47%
same,Emax at 0.5 ppm,"[1]; K6105, read-out: % Efficacy, CtmC 0.5000 ppm alone (Streptimidone 0), upper sub-table",78%
same,Emax at 0.0556 ppm,[2],0%
same,Emax at 0.1667 ppm,[2],23%
same,Emax at 0.5 ppm,[2],47%
same,control of fungal growth (%),[3],90%
same,control of fungal growth (%),[4],90%
same,control of fungal growth (%),[5],50%
same,efficacy 20 g/ha (%),[6]; 20 g/ha,44%
same,efficacy 40 g/ha (%),[6]; 40 g/ha,16%
same,efficacy 20 g/ha (%),[7]; 20 g/ha,81%
same,efficacy 40 g/ha (%),[7]; 40 g/ha,81%
same,efficacy 20 g/ha (%),[8]; 20 g/ha,30%
same,efficacy 40 g/ha (%),[8]; 40 g/ha,47%
same,efficacy (%),[9],71%
same,optical density at 620 nm,"[9]; blank 0.052, untreated 0.666",0.231
same,efficacy (%),[10],90%
same,optical density at 620 nm,"[10]; blank 0.046, untreated 0.508",0.094
same,inhibitory activity,[11],greatest inhibitory activity
